Converted amounts (≈) assume the structure as drawn. The source made the active and inactive calls. The rule behind the calls is not given here.
Tests used:
Histone deacetylase 9 = Histone deacetylase 9 (Homo sapiens, UniProt Q9UKV0)
[1] = Inhibition of class 2a HDAC in human Jurkat E6.1 cells using Boc-Lys(TFA)-AMC as substrate incubated for 24 hrs by plate reader assay; format: cell-based; details: Jurkat E6.1, 24 h
Histone deacetylase 7 = biological target: T1, Histone deacetylase 7 (Homo sapiens, UniProt Q8WUI4); assay: Inhibition of recombinant HDAC7 (unknown origin) using Boc-Lys(TFA)-AMC as substrate by fluorescence based plate reader assay
T1 sequence (Q8WUI4 whole entry): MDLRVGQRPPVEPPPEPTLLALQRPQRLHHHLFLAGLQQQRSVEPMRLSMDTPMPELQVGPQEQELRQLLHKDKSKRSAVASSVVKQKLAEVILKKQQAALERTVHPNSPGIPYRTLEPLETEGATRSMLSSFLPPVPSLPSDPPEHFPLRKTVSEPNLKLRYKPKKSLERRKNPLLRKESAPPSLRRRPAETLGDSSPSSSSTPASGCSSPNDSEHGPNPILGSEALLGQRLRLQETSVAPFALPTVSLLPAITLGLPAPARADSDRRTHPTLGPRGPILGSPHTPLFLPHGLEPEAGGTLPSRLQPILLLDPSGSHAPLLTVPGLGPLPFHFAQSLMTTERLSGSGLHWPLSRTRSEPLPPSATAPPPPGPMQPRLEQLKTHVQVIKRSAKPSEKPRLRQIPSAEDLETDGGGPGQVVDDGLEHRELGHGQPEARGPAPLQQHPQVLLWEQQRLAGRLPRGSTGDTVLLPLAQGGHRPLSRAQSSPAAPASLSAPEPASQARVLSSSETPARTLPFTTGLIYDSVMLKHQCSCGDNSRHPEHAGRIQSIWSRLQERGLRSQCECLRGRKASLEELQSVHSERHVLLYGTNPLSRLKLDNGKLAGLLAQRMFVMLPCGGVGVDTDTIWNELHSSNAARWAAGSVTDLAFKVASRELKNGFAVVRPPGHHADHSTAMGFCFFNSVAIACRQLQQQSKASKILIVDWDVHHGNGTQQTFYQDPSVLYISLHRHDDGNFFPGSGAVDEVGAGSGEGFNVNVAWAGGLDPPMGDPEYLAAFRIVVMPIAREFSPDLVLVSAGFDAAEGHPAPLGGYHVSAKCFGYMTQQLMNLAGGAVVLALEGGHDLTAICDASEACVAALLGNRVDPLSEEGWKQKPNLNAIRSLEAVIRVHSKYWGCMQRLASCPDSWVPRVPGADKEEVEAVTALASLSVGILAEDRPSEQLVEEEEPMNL

[2] = biological target: T2, von Hippel-Lindau disease tumor suppressor/Histone deacetylase 4 (Homo sapiens) (UniProt P56524+P40337); assay: Protac activity at VHL/HDAC4 in human Jurkat E6.1 cells assessed as induction of HDAC4 degradation by measuring maximum degradation at 10 uM incubated for 24 hrs by ELISA-based MSD electrochemiluminescence assay relative to control; format: cell-based
T2 sequence (P40337 whole entry, looked up): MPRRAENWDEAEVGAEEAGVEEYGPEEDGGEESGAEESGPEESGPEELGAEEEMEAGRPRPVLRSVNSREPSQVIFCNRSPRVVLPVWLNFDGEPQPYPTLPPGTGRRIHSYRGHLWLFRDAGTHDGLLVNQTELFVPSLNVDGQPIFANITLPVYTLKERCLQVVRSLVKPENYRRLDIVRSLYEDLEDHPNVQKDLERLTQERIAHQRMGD
T2 sequence (P56524 whole entry, looked up): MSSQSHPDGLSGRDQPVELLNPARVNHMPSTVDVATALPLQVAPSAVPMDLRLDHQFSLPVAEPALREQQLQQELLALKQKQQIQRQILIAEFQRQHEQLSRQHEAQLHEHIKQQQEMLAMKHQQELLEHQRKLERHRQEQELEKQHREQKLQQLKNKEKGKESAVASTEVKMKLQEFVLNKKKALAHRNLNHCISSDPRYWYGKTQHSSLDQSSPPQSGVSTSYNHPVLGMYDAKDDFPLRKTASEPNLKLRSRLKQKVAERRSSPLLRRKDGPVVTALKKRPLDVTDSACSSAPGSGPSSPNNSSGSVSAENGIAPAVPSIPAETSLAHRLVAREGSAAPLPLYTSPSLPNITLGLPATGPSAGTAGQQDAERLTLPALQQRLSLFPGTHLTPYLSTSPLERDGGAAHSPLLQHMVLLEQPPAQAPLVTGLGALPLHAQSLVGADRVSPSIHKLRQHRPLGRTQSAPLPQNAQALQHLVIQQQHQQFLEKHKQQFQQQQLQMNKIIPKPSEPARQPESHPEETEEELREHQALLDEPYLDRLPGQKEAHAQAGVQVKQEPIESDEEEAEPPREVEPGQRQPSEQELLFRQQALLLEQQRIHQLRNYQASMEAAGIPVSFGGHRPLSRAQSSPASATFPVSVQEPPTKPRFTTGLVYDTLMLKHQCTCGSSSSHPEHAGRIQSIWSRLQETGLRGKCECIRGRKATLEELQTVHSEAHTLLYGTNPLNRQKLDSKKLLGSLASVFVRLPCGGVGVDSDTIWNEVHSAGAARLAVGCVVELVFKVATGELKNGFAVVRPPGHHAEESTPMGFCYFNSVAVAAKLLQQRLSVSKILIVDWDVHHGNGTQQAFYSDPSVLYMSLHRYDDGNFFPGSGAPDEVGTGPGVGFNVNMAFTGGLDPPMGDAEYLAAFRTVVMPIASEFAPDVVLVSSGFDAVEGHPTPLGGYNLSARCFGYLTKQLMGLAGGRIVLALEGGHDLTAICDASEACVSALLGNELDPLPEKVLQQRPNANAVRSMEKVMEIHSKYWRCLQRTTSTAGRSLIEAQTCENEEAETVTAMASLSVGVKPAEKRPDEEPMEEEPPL

[3] = biological target: T3, von Hippel-Lindau disease tumor suppressor/Histone deacetylase 4 (Homo sapiens, UniProt P40337+P56524); assay: Protac activity at VHL/HDAC4 in human Jurkat E6.1 cells assessed as induction of HDAC4 degradation incubated for 24 hrs by ELISA-based MSD electrochemiluminescence assay; format: cell-based
T3 sequence (P56524 whole entry): as the sequence (P56524 whole entry, looked up) above
T3 sequence (P40337 whole entry): as the sequence (P40337 whole entry, looked up) above

Histone deacetylase 5 = Histone deacetylase 5 (Homo sapiens, UniProt Q9UQL6); assay: Inhibition of recombinant HDAC5 (unknown origin) using Boc-Lys(TFA)-AMC as substrate by fluorescence based plate reader assay
Chain of Histone deacetylase 5 (Q9UQL6 whole entry): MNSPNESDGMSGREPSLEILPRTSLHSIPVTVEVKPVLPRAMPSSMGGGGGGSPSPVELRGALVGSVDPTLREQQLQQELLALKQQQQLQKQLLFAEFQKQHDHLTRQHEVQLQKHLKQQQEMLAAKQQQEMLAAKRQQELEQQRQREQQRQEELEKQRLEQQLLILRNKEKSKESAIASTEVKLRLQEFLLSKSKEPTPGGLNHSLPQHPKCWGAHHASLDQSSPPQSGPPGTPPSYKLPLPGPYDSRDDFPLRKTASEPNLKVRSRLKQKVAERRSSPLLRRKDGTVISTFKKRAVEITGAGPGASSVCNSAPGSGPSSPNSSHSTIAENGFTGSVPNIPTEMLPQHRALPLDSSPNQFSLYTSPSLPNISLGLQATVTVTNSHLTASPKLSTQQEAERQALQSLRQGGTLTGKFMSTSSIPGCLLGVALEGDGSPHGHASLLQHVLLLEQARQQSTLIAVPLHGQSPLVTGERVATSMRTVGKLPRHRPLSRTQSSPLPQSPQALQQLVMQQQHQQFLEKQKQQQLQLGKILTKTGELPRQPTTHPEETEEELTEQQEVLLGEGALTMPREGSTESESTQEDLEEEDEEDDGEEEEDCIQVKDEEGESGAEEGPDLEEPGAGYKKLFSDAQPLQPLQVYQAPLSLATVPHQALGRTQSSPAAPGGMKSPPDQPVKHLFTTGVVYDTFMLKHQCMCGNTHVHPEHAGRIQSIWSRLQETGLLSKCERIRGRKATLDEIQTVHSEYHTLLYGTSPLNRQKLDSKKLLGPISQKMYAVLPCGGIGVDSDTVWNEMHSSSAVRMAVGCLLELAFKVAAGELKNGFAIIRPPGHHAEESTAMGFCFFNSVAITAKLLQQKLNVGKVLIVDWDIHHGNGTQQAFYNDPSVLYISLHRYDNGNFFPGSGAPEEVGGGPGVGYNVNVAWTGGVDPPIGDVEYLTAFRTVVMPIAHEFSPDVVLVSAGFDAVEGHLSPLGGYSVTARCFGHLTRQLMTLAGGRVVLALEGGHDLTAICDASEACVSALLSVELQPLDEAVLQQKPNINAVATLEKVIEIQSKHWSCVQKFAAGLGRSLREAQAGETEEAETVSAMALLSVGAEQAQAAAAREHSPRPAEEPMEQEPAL

[4] = Kinetic aqueous solubility of the compound in PBS buffer at pH 7.4 incubated for 2 hrs under shaking condition by LC-UV analysis; format: physicochemical; details: read-out: Kinetic_solubility
[5] = biological target: Class 1 histone deacetylase (Homo sapiens, UniProt Q13547+O15379+Q92769+Q9BY41); assay: Inhibition of class 1 HDAC in human Jurkat E6.1 cells using Boc-Lys(Ac)-AMC as substrate incubated for 24 hrs by plate reader assay; format: cell-based
Histone deacetylase 4 = Histone deacetylase 4 (Homo sapiens, UniProt P56524); assay: Inhibition of recombinant HDAC4 (unknown origin) using Boc-Lys(TFA)-AMC as substrate by fluorescence based plate reader assay
Chain of Histone deacetylase 4 (P56524 whole entry): as the sequence (P56524 whole entry, looked up) above

Vhl/Hdac4 [6] = biological target: T4, Vhl/Hdac4 (Mus musculus, UniProt P40338+Q6NZM9); assay: Protac activity at VHL/HDAC4 in mouse Neuro2a cells assessed as induction of HDAC4 degradation incubated for 24 hrs in absence of elacridar by MSD assay
T4 sequence (Q6NZM9 whole entry): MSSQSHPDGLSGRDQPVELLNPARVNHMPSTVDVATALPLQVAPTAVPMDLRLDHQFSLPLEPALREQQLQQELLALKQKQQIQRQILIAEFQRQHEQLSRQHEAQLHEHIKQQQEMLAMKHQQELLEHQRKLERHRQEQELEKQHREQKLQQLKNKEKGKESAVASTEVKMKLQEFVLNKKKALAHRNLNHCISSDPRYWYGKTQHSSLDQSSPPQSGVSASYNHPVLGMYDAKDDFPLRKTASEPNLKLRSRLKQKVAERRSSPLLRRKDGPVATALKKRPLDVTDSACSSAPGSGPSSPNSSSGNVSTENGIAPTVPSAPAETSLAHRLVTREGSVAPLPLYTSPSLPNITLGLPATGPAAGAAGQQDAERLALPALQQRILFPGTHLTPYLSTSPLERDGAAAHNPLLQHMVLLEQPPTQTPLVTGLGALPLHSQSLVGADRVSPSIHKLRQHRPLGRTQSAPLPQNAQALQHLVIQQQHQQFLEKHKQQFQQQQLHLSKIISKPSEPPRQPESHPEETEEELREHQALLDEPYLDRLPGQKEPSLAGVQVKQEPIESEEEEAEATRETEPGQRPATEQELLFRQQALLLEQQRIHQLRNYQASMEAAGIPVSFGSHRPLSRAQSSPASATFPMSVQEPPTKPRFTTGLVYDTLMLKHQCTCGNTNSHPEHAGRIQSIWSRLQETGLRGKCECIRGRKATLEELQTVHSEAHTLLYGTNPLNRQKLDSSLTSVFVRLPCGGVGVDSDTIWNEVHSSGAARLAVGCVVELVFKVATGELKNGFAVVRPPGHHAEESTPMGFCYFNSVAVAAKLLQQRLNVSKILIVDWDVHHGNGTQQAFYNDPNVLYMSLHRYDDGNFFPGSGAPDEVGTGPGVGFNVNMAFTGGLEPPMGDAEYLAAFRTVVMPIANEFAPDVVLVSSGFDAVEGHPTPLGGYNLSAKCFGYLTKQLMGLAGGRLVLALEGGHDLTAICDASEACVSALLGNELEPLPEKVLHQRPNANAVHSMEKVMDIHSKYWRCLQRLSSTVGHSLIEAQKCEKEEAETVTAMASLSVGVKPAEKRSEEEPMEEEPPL
T4 sequence (P40338 whole entry): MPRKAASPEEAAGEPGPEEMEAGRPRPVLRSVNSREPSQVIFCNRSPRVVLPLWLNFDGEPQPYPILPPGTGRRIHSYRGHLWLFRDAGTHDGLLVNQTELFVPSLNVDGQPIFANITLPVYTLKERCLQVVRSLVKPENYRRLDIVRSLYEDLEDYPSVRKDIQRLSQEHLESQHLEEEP

[7] = biological target: T3, von Hippel-Lindau disease tumor suppressor/Histone deacetylase 4; assay: Protac activity at VHL/HDAC4 in human Jurkat E6.1 cells assessed as induction of HDAC4 degradation incubated for 24 hrs in absence of elacridar by Western blot analysis; format: cell-based
[8] = Efflux ratio of apparent permeability basolateral to apical over apical to basolateral side in MDCK cells; format: ADME, cell-based, Canis lupus familiaris; details: dog
[9] = Selectivity ratio of DC50 for protac activity at VHL/HDAC4 in mouse Neuro2a cells to DC50 for protac activity at VHL/HDAC4 in human Jurkat E6.1 cells; format: cell-based
[10] = biological target: T3, von Hippel-Lindau disease tumor suppressor/Histone deacetylase 4; assay: Protac activity at VHL/HDAC4 in human Jurkat E6.1 cells assessed as induction of HDAC4 degradation incubated for 24 hrs by immunoblotting analysis; format: cell-based
[11] = Apparent permeability in MDCK-BCRP cells; format: ADME, cell-based, Canis lupus familiaris; details: dog
[12] = Efflux ratio of apparent permeability basolateral to apical over apical to basolateral side in MDCK-MDR1 cells; format: ADME, cell-based, Canis lupus familiaris; details: dog
[13] = Apparent permeability in MDCK-MDR1 cells; format: ADME, cell-based, Canis lupus familiaris; details: dog
Vhl/Hdac4 [14] = biological target: T4, Vhl/Hdac4; assay: Protac activity at VHL/HDAC4 in Q175 KI mouse cortical neuron assessed as induction of HDAC4 degradation incubated for 4 to 72 hrs in absence of elacridar by MSD assay; format: cell-based
Vhl/Hdac4 [15] = biological target: T4, Vhl/Hdac4; assay: Protac activity at VHL/HDAC4 in mouse Neuro2a cells assessed as induction of HDAC4 degradation preincubated with elacridar for 1 hr followed by compound addition and measured after 24 hrs by MSD assay
[16] = biological target: T3, von Hippel-Lindau disease tumor suppressor/Histone deacetylase 4; assay: Protac activity at VHL/HDAC4 in human Jurkat E6.1 cells assessed as induction of HDAC4 degradation preincubated with elacridar for 1 hr followed by compound addition and measured after 24 hrs by Western blot analysis; format: cell-based
[17] = Efflux ratio of apparent permeability basolateral to apical over apical to basolateral side in MDCK-BCRP cells; format: ADME, cell-based, Canis lupus familiaris; details: dog
[18] = Apparent permeability in MDCK cells; format: ADME, cell-based, Canis lupus familiaris; details: dog
Homo sapiens [19] = species on record: Homo sapiens; assay: Selectivity ratio of IC50 for inhibition of HDAC4 (unknown origin) to IC50 for inhibition of HDAC9 (unknown origin)
Homo sapiens [20] = species on record: Homo sapiens; assay: Selectivity ratio of IC50 for inhibition of HDAC4 (unknown origin) to IC50 for inhibition of HDAC5 (unknown origin)
Homo sapiens [21] = species on record: Homo sapiens; assay: Selectivity ratio of IC50 for inhibition of HDAC4 (unknown origin) to IC50 for inhibition of HDAC7 (unknown origin)
[22] = biological target: T2, von Hippel-Lindau disease tumor suppressor/Histone deacetylase 4 (Homo sapiens); assay: Protac activity at VHL/HDAC4 in human Jurkat E6.1 cells assessed as induction of HDAC4 degradation at 1 uM incubated for 6 hrs by immunoblotting analysis; format: cell-based

Chain of Histone deacetylase 9 (Q9UKV0 whole entry): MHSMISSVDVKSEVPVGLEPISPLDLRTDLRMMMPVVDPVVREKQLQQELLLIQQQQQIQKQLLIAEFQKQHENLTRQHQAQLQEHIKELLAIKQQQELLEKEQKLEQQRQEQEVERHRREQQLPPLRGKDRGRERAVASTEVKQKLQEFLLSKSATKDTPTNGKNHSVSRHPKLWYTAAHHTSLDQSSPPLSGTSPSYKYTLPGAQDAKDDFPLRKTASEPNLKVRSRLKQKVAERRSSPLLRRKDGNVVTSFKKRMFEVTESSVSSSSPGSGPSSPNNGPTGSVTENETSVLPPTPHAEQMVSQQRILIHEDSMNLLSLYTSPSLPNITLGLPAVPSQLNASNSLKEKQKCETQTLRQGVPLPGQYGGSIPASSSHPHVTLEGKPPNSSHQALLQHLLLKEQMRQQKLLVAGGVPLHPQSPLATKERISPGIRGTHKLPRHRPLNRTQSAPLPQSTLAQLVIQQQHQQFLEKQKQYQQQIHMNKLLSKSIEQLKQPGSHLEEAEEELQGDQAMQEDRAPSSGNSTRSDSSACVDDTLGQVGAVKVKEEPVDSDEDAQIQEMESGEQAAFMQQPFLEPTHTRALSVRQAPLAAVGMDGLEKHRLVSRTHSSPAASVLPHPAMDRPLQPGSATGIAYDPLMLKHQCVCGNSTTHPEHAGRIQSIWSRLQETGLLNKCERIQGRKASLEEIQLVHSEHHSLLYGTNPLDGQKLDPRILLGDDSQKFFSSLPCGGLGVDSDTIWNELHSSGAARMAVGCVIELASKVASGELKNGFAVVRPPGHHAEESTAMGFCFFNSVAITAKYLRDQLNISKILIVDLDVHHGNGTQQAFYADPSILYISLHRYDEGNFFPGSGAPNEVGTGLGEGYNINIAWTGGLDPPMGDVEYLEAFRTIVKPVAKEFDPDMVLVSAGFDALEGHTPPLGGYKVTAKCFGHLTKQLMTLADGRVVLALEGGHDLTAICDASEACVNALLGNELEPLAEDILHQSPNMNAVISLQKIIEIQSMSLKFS

Row | Structure (SMILES) | IC50 (Histone deacetylase 9) [nM] | IC50 [1] [nM] | IC50 (Histone deacetylase 7) [nM] | Emax [2] [%] | EC50 [3] [nM] | IC50 (Histone deacetylase 5) [nM] | solubility kinetic at 2 h [4] [µM] | IC50 [5] [nM] | IC50 (Histone deacetylase 4) [nM] | also measured
1 | CCCN(CCCCOCCOCCOCC(=O)N[C@H](C(=O)N1C[C@H](O)C[C@H]1C(=O)NCc1ccc(-c2scnc2C)cc1)C(C)(C)C)C[C@@H](C)NC(=O)c1ccc(-c2noc(C(F)(F)F)n2)cc1 | 130 | 33 | 220 | 72 | 3 | 140 | 100 (≈ 98.7 µg/mL) | 4300 | 90 | –
2 | CCCN(CCC)C[C@@H](C)NC(=O)c1ccc(-c2noc(C(F)(F)F)n2)cc1 | – | – | – | – | – | – | 145 (≈ 57.8 µg/mL) | – | – | –
3 | CCCN(CCCCOCCOCCOCCOCCOCC(=O)N[C@H](C(=O)N1C[C@H](O)C[C@H]1C(=O)NCc1ccc(-c2scnc2C)cc1)C(C)(C)C)C[C@@H](C)NC(=O)c1ccc(-c2noc(C(F)(F)F)n2)cc1 | 94 | 6 | 150 | 78 | 4 | 150 | 144 (≈ 155 µg/mL) | > 5000 | 92 | EC50 (Vhl/Hdac4 [6]): 81 nM; EC50 [7]: 1.7 nM; Ratio [8]: 13; Ratio EC50 [9]: 20; EC50 [10]: 2 nM; Papp [11]: 1.4 ×10⁻⁶ cm/s; Ratio [12]: 7; Papp [13]: 2.6 ×10⁻⁶ cm/s; EC50 (Vhl/Hdac4 [14]): 1.1 nM; EC50 (Vhl/Hdac4 [15]): 2.3 nM; EC50 [16]: 1.6 nM; Ratio [17]: 5; Papp [18]: 2.1 ×10⁻⁶ cm/s
4 | CCCN(CCCCOCCOCCOCCOCC(=O)N[C@H](C(=O)N1C[C@H](O)C[C@H]1C(=O)NCc1ccc(-c2scnc2C)cc1)C(C)(C)C)C[C@@H](C)NC(=O)c1ccc(-c2noc(C(F)(F)F)n2)cc1 | 220 | 2 | 230 | 85 | 4 | 250 | 132 (≈ 136 µg/mL) | 2800 | 100 | –
5 | Cc1ncsc1-c1ccc(CNC(=O)[C@@H]2C[C@@H](O)CN2C(=O)[C@@H](NC(=O)COCCOCCOCCOCCOCC(F)(F)c2cnc(-c3ccc(C(C(=O)NO)c4ccccc4F)cc3)nc2)C(C)(C)C)cc1 (some centres undefined) | 420 | 120 | 250 | 83 | 37 | 260 | 4.8 (≈ 5.04 µg/mL) | > 5000 | 1100 | Ratio IC50 (Homo sapiens [19]): 3; Ratio IC50 (Homo sapiens [20]): 3; EC50 [10]: 11 nM; Ratio IC50 (Homo sapiens [21]): 3; Activity [22]: Active
6 | Cc1ncsc1-c1ccc(CNC(=O)[C@@H]2C[C@@H](O)CN2C(=O)[C@@H](NC(=O)COCCOCCOCC(F)(F)c2cnc(-c3ccc(C(C(=O)NO)c4ccccc4F)cc3)nc2)C(C)(C)C)cc1 (mixture of isomers) | 290 | 150 | 210 | 77 | 28 | 230 | 5.2 | > 5000 | 410 | –

Continued, in another order:

Row | IC50 (Histone deacetylase 9) [nM] | IC50 [1] [nM] | IC50 (Histone deacetylase 7) [nM] | Emax [2] [%] | EC50 [3] [nM] | IC50 (Histone deacetylase 5) [nM] | solubility kinetic at 2 h [4] [µM] | IC50 [5] [nM] | IC50 (Histone deacetylase 4) [nM] | Structure (SMILES) | also measured
7 | 340 | 160 | 210 | 82 | 48 | 310 | 5 (≈ 5.03 µg/mL) | > 5000 | 560 | Cc1ncsc1-c1ccc(CNC(=O)[C@@H]2C[C@@H](O)CN2C(=O)[C@@H](NC(=O)COCCOCCOCCOCC(F)(F)c2cnc(-c3ccc(C(C(=O)NO)c4ccccc4F)cc3)nc2)C(C)(C)C)cc1 (some centres undefined) | –
8 | – | 180 | – | 50 | > 10000 | – | – | > 5000 | 150 | CCCN(CCCCOCCOCCOCCOCCOCC(=O)N[C@@H](C(=O)N1C[C@@H](O)C[C@@H]1C(=O)NCc1ccc(-c2scnc2C)cc1)C(C)(C)C)C[C@@H](C)NC(=O)c1ccc(-c2noc(C(F)(F)F)n2)cc1 | –
9 | – | 130 | – | 20 | > 10000 | – | 4.8 (≈ 5.04 µg/mL) | > 5000 | 230 | Cc1ncsc1-c1ccc(CNC(=O)[C@@H]2C[C@H](O)CN2C(=O)[C@@H](NC(=O)COCCOCCOCCOCCOCC(F)(F)c2cnc(-c3ccc(C(C(=O)NO)c4ccccc4F)cc3)nc2)C(C)(C)C)cc1 (some centres undefined) | –
